Drawing on ChEMBL document CHEMBL1150039, “Dual inhibition of neutral endopeptidase and angiotensin-converting enzyme by N-phosphonomethyl and N-carboxyalkyl dipeptides” (Bioorg Med Chem Lett, 1994), this text covers IC50 for 32 molecules.

The IC50 is the concentration at which inhibition is half-maximal. Read a high IC50 as weaker potency in that assay.

Experiment [1] addresses Angiotensin-converting enzyme (Homo sapiens, UniProt P12821). Briefly: In vitro inhibitory concentration against angiotensin-converting enzyme. The format is protein assay.
The target in a further experiment is Neprilysin (Homo sapiens, UniProt P08473). Briefly: In vitro inhibitory concentration against neutral endopeptidase.
Neprilysin, sequence (P08473 whole entry): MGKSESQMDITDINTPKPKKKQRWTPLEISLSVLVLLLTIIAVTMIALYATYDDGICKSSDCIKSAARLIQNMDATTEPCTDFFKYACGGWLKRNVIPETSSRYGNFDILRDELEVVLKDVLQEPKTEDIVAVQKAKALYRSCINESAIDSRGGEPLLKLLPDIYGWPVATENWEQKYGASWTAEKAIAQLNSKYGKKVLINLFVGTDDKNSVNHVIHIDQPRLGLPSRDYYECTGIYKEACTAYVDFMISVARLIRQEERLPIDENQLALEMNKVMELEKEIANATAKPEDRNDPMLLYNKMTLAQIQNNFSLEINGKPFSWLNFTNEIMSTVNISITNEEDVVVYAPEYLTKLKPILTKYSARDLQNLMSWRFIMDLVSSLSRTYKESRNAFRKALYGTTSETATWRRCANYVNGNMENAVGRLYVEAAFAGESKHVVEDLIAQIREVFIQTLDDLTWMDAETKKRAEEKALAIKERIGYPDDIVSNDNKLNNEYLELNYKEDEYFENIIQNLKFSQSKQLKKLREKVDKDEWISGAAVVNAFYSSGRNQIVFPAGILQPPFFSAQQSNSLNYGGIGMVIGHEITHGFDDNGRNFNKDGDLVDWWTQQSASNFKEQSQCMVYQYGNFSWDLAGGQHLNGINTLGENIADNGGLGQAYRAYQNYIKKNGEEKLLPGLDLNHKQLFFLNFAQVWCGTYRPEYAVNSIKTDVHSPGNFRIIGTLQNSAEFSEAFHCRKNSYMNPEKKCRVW

A value given as a limit tells only on which side of the number the result lay.

Angiotensin-converting enzyme, sequence (P12821 whole entry): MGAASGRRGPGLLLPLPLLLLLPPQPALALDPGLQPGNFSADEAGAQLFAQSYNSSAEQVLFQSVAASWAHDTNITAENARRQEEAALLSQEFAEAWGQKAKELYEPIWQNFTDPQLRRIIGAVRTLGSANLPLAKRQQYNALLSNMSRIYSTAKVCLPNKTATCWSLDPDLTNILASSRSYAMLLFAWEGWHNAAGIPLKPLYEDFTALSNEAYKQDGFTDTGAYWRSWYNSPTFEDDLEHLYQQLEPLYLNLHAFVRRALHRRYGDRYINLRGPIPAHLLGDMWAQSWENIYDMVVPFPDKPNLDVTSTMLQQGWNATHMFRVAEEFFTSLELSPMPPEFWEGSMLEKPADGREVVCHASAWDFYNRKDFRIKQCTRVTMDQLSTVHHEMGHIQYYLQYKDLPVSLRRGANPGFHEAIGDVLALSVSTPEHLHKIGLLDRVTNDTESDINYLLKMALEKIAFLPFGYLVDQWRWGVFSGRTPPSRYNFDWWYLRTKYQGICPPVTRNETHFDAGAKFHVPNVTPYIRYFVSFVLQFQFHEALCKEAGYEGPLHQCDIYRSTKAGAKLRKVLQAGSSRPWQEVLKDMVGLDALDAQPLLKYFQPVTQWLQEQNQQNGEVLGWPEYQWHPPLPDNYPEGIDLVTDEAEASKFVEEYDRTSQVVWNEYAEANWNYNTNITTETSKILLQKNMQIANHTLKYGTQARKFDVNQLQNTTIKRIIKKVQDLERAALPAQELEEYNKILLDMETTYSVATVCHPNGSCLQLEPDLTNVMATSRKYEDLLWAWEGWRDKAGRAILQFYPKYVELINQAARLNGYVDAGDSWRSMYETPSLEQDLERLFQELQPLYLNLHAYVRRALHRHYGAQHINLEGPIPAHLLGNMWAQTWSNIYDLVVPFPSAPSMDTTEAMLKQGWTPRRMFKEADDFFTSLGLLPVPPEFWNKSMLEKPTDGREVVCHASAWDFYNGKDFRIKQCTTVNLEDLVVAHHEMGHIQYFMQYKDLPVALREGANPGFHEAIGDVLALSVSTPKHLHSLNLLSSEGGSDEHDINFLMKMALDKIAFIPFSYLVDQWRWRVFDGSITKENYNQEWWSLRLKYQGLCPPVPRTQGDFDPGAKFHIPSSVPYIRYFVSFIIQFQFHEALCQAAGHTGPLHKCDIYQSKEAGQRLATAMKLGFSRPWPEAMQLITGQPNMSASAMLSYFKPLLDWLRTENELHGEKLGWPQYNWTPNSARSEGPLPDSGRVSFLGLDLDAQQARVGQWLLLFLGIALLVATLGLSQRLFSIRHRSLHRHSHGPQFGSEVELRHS

`CCCC[C@H](NCP(=O)(O)O)C(=O)N[C@@H](Cc1ccc(-c2ccccc2)cc1)C(=O)O`: the concentration for half-maximal inhibition (IC50) in experiment [1] worked out at 0.731 µM; against Neprilysin, 0.037 µM.

Take `O=C(O)[C@H](Cc1ccc(-c2ccccc2)cc1)NC(=O)[C@H](Cc1cnc[nH]1)NCP(=O)(O)O`: the IC50 (in experiment [1]; against Neprilysin) was more than 1 µM each time.

As for `C[C@H](O)[C@H](NCP(=O)(O)O)C(=O)N[C@@H](Cc1ccc(-c2ccccc2)cc1)C(=O)O`, the figures for the IC50 (in experiment [1]; against Neprilysin) were 0.665 µM and more than 1 µM, respectively.

For the molecule `CC(C)Oc1ccc(C[C@H](NC(=O)[C@@H](NCP(=O)(O)O)C(C)C)C(=O)O)cc1`, the values for the IC50 (in experiment [1]; against Neprilysin) were 0.092 µM and 0.009 µM, respectively.

In the case of `O=C(O)[C@H](Cc1ccc(-c2ccccc2)cc1)NC(=O)[C@H](Cc1ccc2c(c1)OCO2)NCP(=O)(O)O`, the IC50 came to 0.147 µM in experiment [1] and 0.048 µM against Neprilysin.

With `CC[C@H](C)C(NCC(=O)O)C(=O)N[C@@H](Cc1ccc(-c2ccccc2)cc1)C(=O)O` (some centres undefined), the half-maximal inhibitory concentration (IC50) in experiment [1] amounted to 0.065 µM; against Neprilysin, 0.2 µM.

On to `O=C(O)[C@H](Cc1ccc(-c2ccccc2)cc1)NC(=O)[C@H](Cc1ccccc1O)NCP(=O)(O)O`, for which the IC50 (in experiment [1]; on Neprilysin) was more than 1 µM throughout.

In the case of `CC(C)[C@H](NCP(=O)(O)O)C(=O)N[C@@H](Cc1ccc(-c2ccccc2)cc1)C(=O)N1C[C@H](O)C[C@H]1C(=O)O`, the IC50 in experiment [1] was more than 1 µM; at Neprilysin it was 0.012 µM.

Turning to `O=C(O)[C@H](Cc1ccc(-c2ccccc2)cc1)NC(=O)[C@H](Cc1ccc(Cl)cc1)NCP(=O)(O)O`, the IC50 in experiment [1] came out at 0.473 µM; against Neprilysin, 0.338 µM.

As for `C[C@H](c1ccccc1)[C@H](NCP(=O)(O)O)C(=O)N[C@@H](Cc1ccc(-c2ccccc2)cc1)C(=O)O`, the IC50 in experiment [1] turned out to be 0.138 µM; against Neprilysin, 0.047 µM.

On to `O=C(O)[C@H](Cc1ccc(-c2ccccc2)cc1)NC(=O)C1(NCP(=O)(O)O)CCCC1`, for which the IC50 (in experiment [1]; against Neprilysin) was more than 1 µM in each case.

On to `CC(C)[C@H](NCP(=O)(O)O)C(=O)N[C@@H](Cc1ccc(-c2ccccc2)cc1)C(=O)N[C@@H](Cc1ccc(O)cc1)C(=O)O`, for which the IC50 in experiment [1] is more than 1 µM; on Neprilysin, 0.004 µM.

For `O=C(O)[C@H](Cc1ccc(-c2ccccc2)cc1)NC(=O)[C@H](Cc1cccs1)NCP(=O)(O)O`, the IC50 in experiment [1] stood at 0.385 µM; on Neprilysin, 0.073 µM.

As for `C[C@H](OCc1ccccc1)[C@H](NCP(=O)(O)O)C(=O)N[C@@H](Cc1ccc(-c2ccccc2)cc1)C(=O)O`, the values for the IC50 (in experiment [1]; against Neprilysin) were 0.656 µM and more than 1 µM, respectively.

As for `O=C(O)[C@H](Cc1ccc(-c2ccccc2)cc1)NC(=O)[C@H](Cc1ccc(-c2ccccc2)cc1)NCP(=O)(O)O`, the IC50 amounted to 0.414 µM in experiment [1] and 0.02 µM on Neprilysin.

As to `O=C(O)[C@H](Cc1ccc(-c2ccccc2)cc1)NC(=O)[C@H](Cc1ccc(O)cc1)NCP(=O)(O)O`, the values for the IC50 (in experiment [1]; against Neprilysin) were more than 1 µM and 0.226 µM, respectively.

As to `CC(C)[C@H](NCP(=O)(O)O)C(=O)N[C@@H](Cc1ccc(-c2ccccc2)cc1)C(=O)O`, the IC50 in experiment [1] was 0.025 µM; against Neprilysin, 0.003 µM.

In the case of `CC[C@@H](C)[C@H](NCP(=O)(O)O)C(=O)N[C@@H](Cc1ccc(-c2ccccc2)cc1)C(=O)O`, the IC50 stood at 0.05 µM in experiment [1] and 0.002 µM at Neprilysin.

For `C[C@H](NCP(=O)(O)O)C(=O)N[C@@H](Cc1ccc(-c2ccccc2)cc1)C(=O)O`, the values for the IC50 (in experiment [1]; against Neprilysin) were 0.66 µM and 1 µM, respectively.

Turning to `Cc1ccccc1C[C@H](NCP(=O)(O)O)C(=O)N[C@@H](Cc1ccc(-c2ccccc2)cc1)C(=O)O`, the IC50 in experiment [1] stood at 0.498 µM; against Neprilysin, 0.096 µM.

`C[C@H](N[C@@H](Cc1ccccc1)C(=O)N[C@@H](Cc1ccc(-c2ccccc2)cc1)C(=O)O)P(=O)(O)O`: the results for the IC50 (in experiment [1]; on Neprilysin) were 0.044 µM and 0.171 µM, respectively.

Consider `O=C(O)[C@H](Cc1ccc(-c2ccccc2)cc1)NC(=O)[C@H](Cc1ccc2ccccc2c1)NCP(=O)(O)O`, for which the IC50 in experiment [1] was 0.053 µM; against Neprilysin, 0.282 µM.

Consider `CC(C)[C@H](N[C@@H](C)C(=O)O)C(=O)N[C@@H](Cc1ccc(-c2ccccc2)cc1)C(=O)O`, for which the figures for the IC50 (in experiment [1]; against Neprilysin) were 0.023 µM and 0.735 µM, respectively.

For `O=C(O)[C@H](Cc1ccc(-c2ccccc2)cc1)NC(=O)[C@@H](NCP(=O)(O)O)C1CCCCC1`, the IC50 was more than 1 µM in experiment [1] and 0.034 µM against Neprilysin.

With `CC(C)C[C@H](NCP(=O)(O)O)C(=O)N[C@@H](Cc1ccc(-c2ccccc2)cc1)C(=O)O`, the values for the IC50 (in experiment [1]; against Neprilysin) were more than 1 µM and 0.356 µM, respectively.

Regarding `CC(C)[C@H](NCP(=O)(O)O)C(=O)N[C@@H](Cc1c[nH]c2ccccc12)C(=O)O`, the results for the IC50 (in experiment [1]; at Neprilysin) were 0.24 µM and 0.009 µM, respectively.

Take `CC(C)[C@H](NCP(=O)(O)O)C(=O)N[C@@H](Cc1ccc(C2CCCCC2)cc1)C(=O)O`: the values for the IC50 (in experiment [1]; against Neprilysin) were 0.122 µM and 0.035 µM, respectively.

Regarding `O=C(O)[C@H](Cc1ccc(-c2ccccc2)cc1)NC(=O)[C@H](Cc1ccccc1)NCP(=O)(O)O`, the figures for the IC50 (in experiment [1]; against Neprilysin) were 0.117 µM and 0.035 µM, respectively.

Consider `CC(C)(C)[C@H](NCP(=O)(O)O)C(=O)N[C@@H](Cc1ccc(-c2ccccc2)cc1)C(=O)O`, for which the IC50 (in experiment [1]; against Neprilysin) was more than 1 µM throughout.

For the molecule `CC(C)[C@H](NCP(=O)(O)O)C(=O)N[C@@H](CCc1ccccc1)C(=O)O`, the IC50 in experiment [1] was 0.1 µM; at Neprilysin, 0.026 µM.

In the case of `COc1ccccc1C[C@H](NCP(=O)(O)O)C(=O)N[C@@H](Cc1ccc(-c2ccccc2)cc1)C(=O)O`, the values for the IC50 (in experiment [1]; against Neprilysin) were 0.16 µM and more than 1 µM, respectively.

For `CC[C@H](C)C(N[C@@H](C)C(=O)O)C(=O)N[C@@H](Cc1ccc(-c2ccccc2)cc1)C(=O)O` (some centres undefined), the IC50 worked out at 0.022 µM in experiment [1] and 0.165 µM against Neprilysin.
